US6727263B2, “Indole and 2,3-dihydroindole derivatives, their preparation and use” (H. Lundbeck A/S, priority 1997, dated 2004)
Structures can show the parent of a compound that is named as a salt. Where two headings read alike, the source gives them in different places.

Assays:
human 5-HT1A receptors = biological target: T1, human 5-HT1A receptors (Homo sapiens, UniProt P08908); experiment: Inhibition of 3H-5-CT binding to human 5-HT1A receptors
T1 construct: expressed in transfected cells; host or cells: HeLa cells (HA7), used as cell homogenate
T1 sequence (P08908 1-422): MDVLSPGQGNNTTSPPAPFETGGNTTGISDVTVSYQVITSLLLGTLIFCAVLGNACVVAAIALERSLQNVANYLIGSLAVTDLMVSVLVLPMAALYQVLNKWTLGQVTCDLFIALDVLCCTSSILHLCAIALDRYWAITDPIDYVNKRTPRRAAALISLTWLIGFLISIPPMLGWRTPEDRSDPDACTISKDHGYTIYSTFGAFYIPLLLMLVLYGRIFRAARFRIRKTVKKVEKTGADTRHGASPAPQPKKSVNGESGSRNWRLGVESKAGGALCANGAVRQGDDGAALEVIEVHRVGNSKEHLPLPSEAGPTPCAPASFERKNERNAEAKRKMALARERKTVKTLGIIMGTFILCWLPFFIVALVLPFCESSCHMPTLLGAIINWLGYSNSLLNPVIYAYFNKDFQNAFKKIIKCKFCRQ
Procedure: Inhibition of ^3H-5-CT Binding to Human 5-HT1A Receptors
Human 5-HT1A receptors (40 μg of cell homogenate) were incubated for 15 minutes at 37° C. in 50 mM Tris buffer at pH 7.7 in the presence of ^3H-5-CT. Non-specific binding was determined by including 10 μM of metergoline. The reaction was terminated by rapid filtration through Unifilter GF/B filters on a Tomtec Cell Harvester. Filters were counted in a Packard Top Counter.

[1] = system: 3H-5-HT uptake into whole rat brain synaptosomes; experiment: Inhibition of 3H-5-HT uptake into rat brain synaptosomes; assay type: biochemical; conditions: 3H-5-HT accumulation into whole rat brain synaptosomes, in vitro; read-out: Inhibition of serotonin reuptake IC50
Procedure: Inhibition of ^3H-5-HT Uptake Into Rat Brain Synaptosomes
Using this method the ability of drugs to inhibit the accumulation of ^3H-5-HT into whole rat brain synaptosomes is determined in vitro.

cloned 5-HT1A receptors = biological target: T2, cloned 5-HT1A receptors (Homo sapiens, UniProt P08908); experiment: Antagonism of 5-HT induced inhibition of forskolin induced cAMP accumulation; assay type: cell-based; conditions: cloned 5-HT1A receptors in transfected HeLa cells (HA7)
T2 construct: expressed in transfected cells; host or cells: HeLa cells (HA7)
T2 sequence (P08908 1-422): T1 sequence (P08908 1-422)
Procedure: The assay was performed as a modification of the method described by Pauwels, P. J et al, Biochem. Pharmacol. 1993, 45, 375.

[2] = read-out: Inhibition of 3H-5-CT binding IC50, cloned human 5-HT1A receptors expressed in transfected HeLa cells (HA7), cell homogenate, 15 minutes at 37° C., pH 7.7

Compound | melting point [°C] | also measured
3-[2-[4-(1,4-Benzodioxan-5-yl)piperazin-1-yl]ethyl]-5-methyl-1H-indole hemifumarate [Compound 1j] |  | IC50 (human 5-HT1A receptors; [2]): 14 nM; IC50 [1]: 3.5 nM; IC50 (cloned 5-HT1A receptors): 980 nM
c1cc2c(c(N3CCN(CCc4c[nH]c5ccccc45)CC3)c1)OCCO2 [Compound 2a, 3-[2-[4-(1,4-Benzodioxan-5-yl)Piperazin-1-yl]Ethyl]-1H-Indole Hemifumarate] |  | IC50 (human 5-HT1A receptors; [2]): 2.9 nM; IC50 [1]: 3.5 nM; IC50 (cloned 5-HT1A receptors): 160 nM
Brc1ccc2[nH]cc(CCN3CCN(c4cccc5c4SCC=C5)CC3)c2c1 | 166 to 167 | 
Fc1ccc2[nH]cc(CCN3CCC(c4cccc5ccoc45)CC3)c2c1.O=C(O)C(=O)O | 191 to 194 | 
C=CCn1cc(CCN2CCN(c3cccc4c3OCCO4)CC2)c2ccccc21.O=C(O)C(=O)O | 187 to 190 | 
O=C(O)C(=O)O.c1cc2c(c(N3CCN(CCn4ccc5ccccc54)CC3)c1)OCC2 | 223 to 226 | 
CC1(C)Cc2cccc(C3CCN(CCc4c[nH]c5cc(Cl)ccc45)CC3)c2O1 [Compound 1f, 6-Chloro-3-[2-[4-(2,2, -dimethyl-2,3-dihydrobenzofuran-7-yl)piperidin-1-yl]ethyl]-1H-indole oxalate] |  | IC50 (human 5-HT1A receptors): 6.1 nM; IC50 [1]: 5.9 nM; IC50 (cloned 5-HT1A receptors): 1800 nM
Brc1ccc2[nH]cc(CCN3CC=C(c4cccc5ccoc45)CC3)c2c1.O=C(O)C(=O)O | 185 to 194 | 
Cc1[nH]c2ccccc2c1CCN1CCN(c2cccc3c2OCCO3)CC1.O=C(O)C(=O)O [Compound 1c, 3-[2-[4-(1,4-Benzodioxan-5-yl)piperazin-1-yl]ethyl]-2-methyl-1H-indole oxalate] | 205 to 208 | IC50 (human 5-HT1A receptors): 2.5 nM; IC50 [1]: 45 nM
Clc1ccc2c(CCN3CCN(c4cccc5ccoc45)CC3)c[nH]c2c1 [Compound 1u, 3-[2-[4-(Benzofuran-7-yl)piperazin-1-yl]ethyl]-6-chloro-1H-indole] | 202 to 204 | IC50 (cloned 5-HT1A receptors): 2000 nM
Clc1ccc2[nH]cc(CCN3CCN(c4cccc5c4SCC=C5)CC3)c2c1 | 152 to 153 | 
C#CCn1cc(CCN2CCN(c3cccc4c3OCCO4)CC2)c2ccccc21.O=C(O)C(=O)O | 168 to 172 | 
Clc1ccc2c(CCN3CC=C(c4cccc5c4OCC5)CC3)c[nH]c2c1.O=C(O)C(=O)O [Compound 1x, 6-Chloro-3-[2-[4-(2,3-dihydrobenzofuran-7-yl)-1,2,3,6-tetrahydropyridin-1-yl]ethyl]-1H-indole oxalate] | 211 to 214 | IC50 (cloned 5-HT1A receptors): 3000 nM
Clc1ccc2ccn(CCN3CCN(c4cccc5c4OCCO5)CC3)c2c1.O=C(O)C(=O)O | 234 to 235 | 
O=C(O)C(=O)O.c1ccc(CN2CC(CCN3CCN(c4cccc5c4OCCO5)CC3)c3ccccc32)cc1 (stereo not drawn) | 158 to 165 | 
Clc1cc2c(c(N3CCN(CCc4c[nH]c5cc(Cl)ccc45)CC3)c1)OCCO2.O=C(O)C(=O)O [Compound 1l, 6-Chloro-3-[2-[4-(7-chloro-1,4-benzodioxan-5-yl)piperazin-1-yl]ethyl]-1H-indole oxalate] | 237 to 238 | IC50 (human 5-HT1A receptors): 12 nM; IC50 [1]: 7.7 nM
Clc1ccc2c(CCN3CCN(c4cccc5c4OCC5)CC3)c[nH]c2c1.O=C(O)C(=O)O [Compound 1o, 6-Chloro-3-[2-[4-(2,3-dihydrobenzofuran-7-yl)piperazin-1-yl]ethyl]-1H-indole oxalate] | 205 to 207 | IC50 (cloned 5-HT1A receptors): 3200 nM
Clc1ccc2c(CCN3CCN(c4cccc5c4SCCC5)CC3)c[nH]c2c1 [Compound 1t] |  | IC50 (cloned 5-HT1A receptors): 5900 nM

Compound | melting point [°C] | also measured
COc1ccc2[nH]cc(CCN3CCN(c4cccc5c4OCCO5)CC3)c2c1 (as salt: oxalate) [Compound 1i, 3-[2-[4-(1,4-Benzodioxan-5-yl)piperazin-1-y]ethyl]-5-methoxy-1H-indole hemioxalate] | 189 to 196 | 
Fc1ccc2[nH]cc(CCN3CCN(c4cccc5c4OCC5)CC3)c2c1.O=C(O)C(=O)O | 145 to 149 | 
CC1(C)COc2c(N3CCN(CCc4c[nH]c5cc(Cl)ccc45)CC3)cc(Cl)cc21 [Compound 3c, 6-Chloro-3-[2-[4-(5-chloro-3,3-dimethyl-2,3-dihydrobenzofuran-7-yl)piperazin-1-yl]ethyl]-1H-indole hemifumarate] |  | IC50 (cloned 5-HT1A receptors): 2600 nM
CC1(C)Cc2cccc(C3CCN(CCc4c[nH]c5cc(Cl)ccc45)CC3)c2O1 (as salt: oxalate) [Compound 1f, 6-Chloro-3-[2-[4-(2,2, -dimethyl-2,3-dihydrobenzofuran-7-yl)piperidin-1-yl]ethyl]-1H-indole oxalate] | 190 to 193 | 
Clc1ccc2[nH]cc(CCN3CCN(c4cccc5ccsc45)CC3)c2c1.O=C(O)C(=O)O | 175.2 to 176.6 | 
Clc1ccc2c(CCN3CCN(c4c(Cl)ccc5c4OCCO5)CC3)c[nH]c2c1.O=C(O)C(=O)O [Compound 1m, 6-Chloro-3-[2-[4-(6-Chloro-1,4-benzodioxan-5-yl)piperazin-1-yl]ethyl]-1H-indole oxalate] | 216 to 217 | IC50 (human 5-HT1A receptors): 99 nM; IC50 [1]: 57 nM
Brc1ccc2[nH]cc(CCN3CCC(c4cccc5ccoc45)CC3)c2c1.O=C(O)C(=O)O | 153 to 157 | 
O=C(O)C(=O)O.c1cc2c(c(N3CCN(CCn4ccc5ccccc54)CC3)c1)OCCO2 | 225 to 229 | 
Clc1ccc2c(c1)C(CCN1CCN(c3cccc4c3OCCO4)CC1)CN2.O=C(O)C(=O)O (stereo not drawn) | 153 to 157 | 
CC1(C)Cc2cccc(C3=CCN(CCc4c[nH]c5cc(Cl)ccc45)CC3)c2O1 (as salt: oxalate) [Compound 1g, 6-Chloro-3-[2-[4-(2,2,-dimethyl-2,3,-dihydrohydrobenzofuran-7-yl)-1,2,3,6-tetrahydro-1-pyridyl]ethyl]-1H-indole oxalate] | 200 to 204 | 
CC1(C)Cc2cc(Cl)cc(N3CCN(CCc4c[nH]c5ccccc45)CC3)c2O1 [Compound 3b, 3-[2-[4-(5-Chloro-2,2-dimethyl-2,3-dihydrobenzofuran-7-yl)piperazin-1-yl]ethyl]-1H-indole hemifumarate] |  | IC50 (human 5-HT1A receptors; [2]): 3.6 nM; IC50 [1]: 8.3 nM
Clc1ccc2c(CCN3CCN(c4cccc5c4SCC=C5)CC3)c[nH]c2c1 [Compound 1t] | 178 to 179 | 
C=CCN1CC(CCN2CCN(c3cccc4c3OCCO4)CC2)c2ccccc21.O=C(O)C(=O)O (stereo not drawn) | 133 to 136 | 
CN1CC(CCN2CCN(c3cccc4c3OCCO4)CC2)c2ccccc21 (stereo not drawn) [Compound 6a, 3-[2-[4-(1,4-Benzodioxan-5-yl)Piperazin-1-yl]Ethyl]-2,3-Dihydro-1-Methyl-1H-Indole Oxalate] |  | IC50 (cloned 5-HT1A receptors): 100 nM
Clc1ccc2c(ccn2CCN2CCN(c3cccc4c3OCCO4)CC2)c1.O=C(O)C(=O)O | 234 to 235 | 
Cc1cc2c(c(C3CCN(CCc4c[nH]c5cc(Cl)ccc45)CC3)c1)OC(C)(C)C2.O=C(O)/C=C/C(=O)O [Compound 1d, 6-Chloro-3-[2-[4-(2,2,5-trimethyl-2,3-dihydrobenzofuran-7-yl)piperidin-1-yl]ethyl]-1H-indole fumarate] | 232 to 237 | IC50 (human 5-HT1A receptors): 55 nM; IC50 [1]: 36 nM
CC1(C)Cc2cccc(N3CCN(CCc4c[nH]c5cc(Cl)ccc45)CC3)c2O1.O=C(O)/C=C/C(=O)O | 165 to 167 | 
Fc1ccc2c(ccn2CCN2CCN(c3cccc4c3OCCO4)CC2)c1.O=C(O)C(=O)O | 230 to 231 | 
